pIC50: −log10 of the molar value.
What was measured:
[1] = molecular target: T1, Prostaglandin G/H synthase 1 (Bos taurus, UniProt O62664); test: Inhibition of bovine COX1
T1 sequence (O62664 whole entry): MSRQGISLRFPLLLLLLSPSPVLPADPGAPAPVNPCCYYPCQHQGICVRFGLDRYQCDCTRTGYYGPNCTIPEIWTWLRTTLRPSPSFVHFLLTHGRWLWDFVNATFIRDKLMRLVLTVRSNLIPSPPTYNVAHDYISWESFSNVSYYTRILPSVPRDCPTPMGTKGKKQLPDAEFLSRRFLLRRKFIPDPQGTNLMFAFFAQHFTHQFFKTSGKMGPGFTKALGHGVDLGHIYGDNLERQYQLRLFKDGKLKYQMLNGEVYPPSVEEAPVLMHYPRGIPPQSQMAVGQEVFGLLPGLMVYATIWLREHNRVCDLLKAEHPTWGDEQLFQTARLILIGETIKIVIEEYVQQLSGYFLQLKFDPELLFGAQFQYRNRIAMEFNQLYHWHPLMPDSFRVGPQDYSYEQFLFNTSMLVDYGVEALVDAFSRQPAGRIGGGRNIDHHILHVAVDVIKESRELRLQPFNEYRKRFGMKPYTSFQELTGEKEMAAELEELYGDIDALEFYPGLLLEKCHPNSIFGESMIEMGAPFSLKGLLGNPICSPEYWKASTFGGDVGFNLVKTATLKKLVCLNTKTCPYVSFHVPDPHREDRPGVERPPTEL

[2] = molecular target: T2, Prostaglandin G/H synthase 2 (Homo sapiens) (UniProt P35354); test: Inhibition of human COX2 at 10 uM
T2 sequence (whole entry): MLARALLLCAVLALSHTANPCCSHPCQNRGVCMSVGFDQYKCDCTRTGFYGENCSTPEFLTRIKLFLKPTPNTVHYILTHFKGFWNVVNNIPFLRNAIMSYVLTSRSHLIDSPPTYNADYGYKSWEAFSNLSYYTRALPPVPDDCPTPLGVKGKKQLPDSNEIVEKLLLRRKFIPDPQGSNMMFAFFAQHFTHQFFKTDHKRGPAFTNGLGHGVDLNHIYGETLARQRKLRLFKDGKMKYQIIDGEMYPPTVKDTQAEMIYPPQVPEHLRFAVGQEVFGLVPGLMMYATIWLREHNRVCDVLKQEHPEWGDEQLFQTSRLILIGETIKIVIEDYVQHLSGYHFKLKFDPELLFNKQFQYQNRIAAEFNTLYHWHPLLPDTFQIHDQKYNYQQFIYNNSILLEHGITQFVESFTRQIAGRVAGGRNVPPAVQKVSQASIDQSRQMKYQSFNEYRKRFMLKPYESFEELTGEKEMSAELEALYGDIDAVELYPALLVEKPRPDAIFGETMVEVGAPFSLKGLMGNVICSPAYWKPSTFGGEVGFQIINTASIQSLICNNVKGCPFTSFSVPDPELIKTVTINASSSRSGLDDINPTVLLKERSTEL

[3] = molecular target: T3, Prostaglandin G/H synthase 2 (Homo sapiens, UniProt P35354)
T3 sequence (P35354 whole entry): T2 sequence (whole entry)

[4] = Antioxidant activity assessed as hydroxyl radical scavenging activity at 100 uM; format: functional
[5] = molecular target: T4, Prostaglandin G/H synthase 1 (Bos taurus) (UniProt O62664); test: Inhibition of bovine COX1 at 10 uM
T4 sequence (whole entry): T1 sequence (O62664 whole entry)

[6] = Inhibition of bovine 5LOX

## COc1ccc(-c2cn[se]c2-c2ccc(Cl)cc2)cc1
[1]
  pIC50: 8.00
[2]
  inhibition: 16%

## COc1ccc(-c2[se]ncc2-c2ccc(Cl)cc2)cc1
[1]
  pIC50: 7.70
[2]
  inhibition: 17%

## Cc1ccc(-c2cn[se]c2-c2ccc(Cl)cc2)cc1
[1]
  pIC50: 6.70

## Clc1ccc(-c2cn[se]c2-c2ccc(Cl)cc2)cc1
[1]
  pIC50: 6.70

## COc1ccc(-c2cn[se]c2-c2ccc(OC)cc2)cc1
[1]
  pIC50: 8.22
[3]
  pIC50: 5.10
[4]
  inhibition: 14%

## COc1ccc(-c2[se]ncc2-c2ccc(C)cc2)cc1
[1]
  pIC50: 7.70

## Cc1ccc(-c2cc(C(F)(F)F)nn2-c2ccc(S(N)(=O)=O)cc2)cc1
[4]
  inhibition: 27%

## CS(=O)(=O)c1ccc(-c2[se]ncc2-c2ccc(F)cc2)cc1
[5]
  inhibition: 38%
[3]
  pIC50: 6.22
[6]
  pIC50: 5.10
[4]
  inhibition: 34%

## Cc1ccc(-c2[se]ncc2-c2ccc(Cl)cc2)cc1
[1]
  pIC50: 7.30

## O=c1c2ccccc2[se]n1-c1ccccc1 [EBSELEN]
[1]
  pIC50: 5.68

## CC1(C)Cc2c(-c3ccccc3)c(-c3ccc(Cl)cc3)c(CC(=O)O)n2C1 [LICOFELONE]
[6]
  pIC50: 6.74

## CC(Cc1ccc(O)c(O)c1)C(C)Cc1ccc(O)c(O)c1 (stereo unspecified) [NORDIHYDROGUAIARETIC ACID]
[5]
  inhibition: 31%
[2]
  inhibition: 10%
[6]
  pIC50: 6.00

Reference: ChEMBL document CHEMBL1156697, “Investigations concerning the COX/5-LOX inhibiting and hydroxyl radical scavenging potencies of novel 4,5-diaryl isoselenazoles” (Eur J Med Chem, 2008)
